Publication PMC11356571, “The Comparative Metabolism of a Novel Hepatocellular Carcinoma Therapeutic Agent, 2,3-Diamino-N-(4-(benzo[d]thiazol-2-yl)phenyl)propanamide, in Human and Animal Hepatocytes” (Metabolites, 2024)

Experiments:
Format in all cases: in vitro ADME
CYP2E1 = target: T1, CYP2E1 (Homo sapiens, UniProt P05181); test: Incubation with human cDNA-expressed CYP2E1; details: CYP2E1, 30 min at 37 °C with NADPH; ETN101 10 μM or M1 1 μM
T1 construct: purchased Corning Life Sciences (Woburn, MA, USA)
T1 sequence (P05181 whole entry): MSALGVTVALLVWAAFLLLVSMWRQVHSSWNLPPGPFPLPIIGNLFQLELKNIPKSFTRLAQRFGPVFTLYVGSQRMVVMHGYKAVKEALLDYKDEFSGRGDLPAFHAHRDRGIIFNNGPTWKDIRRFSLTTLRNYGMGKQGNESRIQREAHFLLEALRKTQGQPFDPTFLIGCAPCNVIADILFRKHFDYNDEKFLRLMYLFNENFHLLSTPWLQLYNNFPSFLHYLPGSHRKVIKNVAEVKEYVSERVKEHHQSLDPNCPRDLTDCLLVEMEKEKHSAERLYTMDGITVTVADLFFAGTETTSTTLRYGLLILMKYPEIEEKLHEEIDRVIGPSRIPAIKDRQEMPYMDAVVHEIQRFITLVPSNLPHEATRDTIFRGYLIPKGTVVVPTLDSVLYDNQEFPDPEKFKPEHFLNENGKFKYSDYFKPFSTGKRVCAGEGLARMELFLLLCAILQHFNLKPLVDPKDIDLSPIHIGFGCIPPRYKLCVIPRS
Experimental: (§1) ETN101 or M1 was incubated with nine human cDNA-expressed CYP enzymes (1A2, 2A6, 2B6, 2C8, 2C9, 2C19, 2D6, 2E1, and 3A4) to identify the CYPs involved in the metabolism of ETN101. Based on the preliminary study, the incubation conditions were determined as follows: Briefly, reaction mixtures of 50 μL containing ETN101 (final concentration: 10 μM) or M1 (final concentration: 1 μM), and CYPs (final amount: 5 pmol for CYP1A2, 2A6, 2C8, 2C9, 2C19, 2D6, and 3A4; 10 pmol for CYP2B6 and 2E1) were prepared in 0.1 M potassium phosphate buffer. The reaction was initiated by adding 50 μL of NADPH- regenerating system; the mixtures were incubated for 0 min or 30 min at 37 °C in triplicate. Reactions were terminated by the addition of 100 μL of ice-cold acetonitrile containing the IS (camptothecin, 200 ng/mL). Samples were centrifuged at 13,000 rpm for 5 min at 4 °C. An aliquot of 2 μL supernatant was injected in LC–MS/MS system.
(§2) For enzyme characterization, an Agilent 6460 triple quadrupole mass spectrometer coupled with a 1260 HPLC system (Agilent Technologies, Santa Clara, CA, USA) and a Kinetex Halo® C18 column (2.7 μm, 2.1 × 50 mm, Advanced Material Technology, Wilmington, DE, USA) were used for chromatographic separation. […] ETN101, M1, and M2 were detected via MRM using ESI in the positive mode. […]

CYP2D6 = target: T2, CYP2D6 (Homo sapiens, UniProt P10635); test: Incubation with human cDNA-expressed CYP2D6; details: CYP2D6, 30 min at 37 °C with NADPH; ETN101 10 μM or M1 1 μM
T2 construct: purchased Corning Life Sciences (Woburn, MA, USA)
T2 sequence (P10635 whole entry): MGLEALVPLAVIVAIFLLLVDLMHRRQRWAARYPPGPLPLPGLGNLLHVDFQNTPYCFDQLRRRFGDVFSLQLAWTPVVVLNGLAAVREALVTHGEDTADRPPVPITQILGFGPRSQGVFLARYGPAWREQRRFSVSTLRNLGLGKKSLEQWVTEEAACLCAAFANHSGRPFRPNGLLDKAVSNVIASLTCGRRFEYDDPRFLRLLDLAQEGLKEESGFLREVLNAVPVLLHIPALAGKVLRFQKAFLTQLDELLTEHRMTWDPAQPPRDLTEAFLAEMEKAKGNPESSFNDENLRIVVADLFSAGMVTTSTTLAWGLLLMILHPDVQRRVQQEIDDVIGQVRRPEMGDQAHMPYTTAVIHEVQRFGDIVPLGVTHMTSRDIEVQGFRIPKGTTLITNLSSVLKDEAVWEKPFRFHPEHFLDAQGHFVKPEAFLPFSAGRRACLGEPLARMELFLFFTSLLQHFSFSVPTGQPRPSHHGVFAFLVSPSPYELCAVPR
Experimental: as §1, §2

monkey hepatocytes = test: Metabolite characterization in monkey hepatocytes; details: monkey hepatocyte 1 h incubates of ETN101; ND:<1.2E+05 peak area
Experimental: (§3) We mixed 60 μL aliquots of 40 μM ETN101 in incubation medium and an equal volume of human, mouse, rat, dog, or monkey hepatocyte suspension in 96-well plates and incubated for 0 or 1 h in a CO2 incubator at 37 °C. The reactions were quenched by adding 120 µL of ice-cold acetonitrile to each well, and the cell suspension was sonicated for 5 min at 4 °C. Subsequently, centrifugation was carried out at 15,000× g for 10 min at 4 °C. Next, the supernatants were evaporated to dryness using a vacuum concentrator, and residues were re-dissolved in 70 μL of 30% acetonitrile. Each sample (5 μL aliquots) was analyzed using LC–HRMS system.
(§4) For metabolite characterization, a Vanquish HPLC system (Thermo Fisher Scientific, San José, CA, USA) coupled with a Q-Exactive Orbitrap mass spectrometer (Thermo Fisher Scientific Inc., Waltham, MA, USA) was used at Core Research Support Center for Natural Products and Medical Materials at Yeungnam University. […] The eluent from the column was directly injected into the mass spectrometer using a heated electrospray ionization (HESI) source in positive ionization mode. […] The spray voltage was 3.0 kV and the capillary temperature was 320 °C. Full scan MS^1 with a data-dependent MS^2 acquisition mode was applied to obtain MS^1 scan data ranging from m/z 80 to 900, at a resolution of 70,000, whereas data-dependent MS^2 spectra were acquired for the five most abundant peaks per cycle at a resolution of 35,000. The parallel reaction monitoring (PRM) mode was used to obtain the MS^2 spectra of putative metabolites detected at low peak intensities in the data-dependent MS^2 acquisition mode. Data were collected and interpreted using Thermo Scientific Xcalibur™ Software (Thermo Fisher Scientific).

dog hepatocytes = test: Metabolite characterization in dog hepatocytes; details: dog hepatocyte 1 h incubates of ETN101; ND:<1.2E+05 peak area
Experimental: as §3, §4

Row | Compound | Percentage remaining (CYP2E1) [%] | Percentage remaining (CYP2D6) [%] | Relative peak area (%) (monkey hepatocytes) | Relative peak area (%) (dog hepatocytes)
1 | NCC(N)C(=O)Nc1ccc(-c2nc3ccccc3s2)cc1 (centres unmarked) [ETN101, 2,3-diamino-N-(4-(benzo[d]thiazol-2-yl)phenyl)propanamide] | 81.1 | 86.9 | 69.0 | 39.5
2 | Nc1ccc(-c2nc3ccccc3s2)cc1 [M1, 2-(4-aminophenyl)benzothiazole] | 97.3 | 83.0 | 21.5 | 55.9
